US11045669B2, “Hydroalcoholic extract of Schinus molle, cosmetic compositions comprising the same and cosmetic uses thereof” (ISP INVESTMENTS LLC, priority 2015, dated 2021)

What was measured:
[1] = test system: Hyaluronan synthase 3 (HAS3); assay: RT-qPCR expression of HAS3 in NHEK; assay type: cell-based, human; conditions: 24 h, CaCl2 1.5 mM
Experimental: (§1) The potential effects of a hydroethanolic extract of Schinus molle obtained in accordance with Example 2 on skin hydration and barrier function were studied in a model of normal human epidermal keratinocytes (NHEKs) by analysing the expression profile of genes specific to the differentiation of keratinocytes and lipid synthesis by an RT-qPCR (reverse transcription quantitative polymerase chain reaction) method.
(§2) • Cell type: 3rd passage NHEKs • Culture conditions: 37° C., 5% CO2 • Culture medium: keratinocyte SFM (serum free medium) supplemented with • epidermal growth factor (EGF) 0.25 ng/ml • pituitary extract (PE) 25 μg/ml • gentamicin 25 μg/ml • Test medium: keratinocyte SFM supplemented with gentamicin 25 μg/ml Tested Compounds
(§3) The normal human epidermal keratinocytes (NHEKs) were seeded and cultivated in culture medium for 24 hours. […] All the conditions were performed with n=3.
(§4) The expression of the markers was assessed by RT-qPCR on the mRNAs (messenger RNAs) extracted from the cell layers of each treatment (the replicates were pooled before the RNA extraction).
(§5) The analysis of the expression of the genes was performed with n=2 with the aid of 2 “marker quantitative PCR arrays” containing 16 genes, including 2 housekeeping (HK) genes, dedicated to research and adapted to the screening format (mQPA-NHEK-BARRIER-16, product by BIOalternatives®).
(§6) The incorporation of fluorescence in the amplified DNA is measured continuously during the course of the PCR cycles. These measurements make it possible to obtain intensity curves of the fluorescence depending on the PCR cycles and to thus evaluate a value of relative expression (RE) for each marker. The number of cycles is determined on the basis of “exit” points of the fluorescence curves. For the same analysed marker, the later a sample exits (appeared late, after a number of increased cycles), the lower is the initial number of copies of the mRNA.
(§7) The RE (relative expression) value is expressed in arbitrary units (AU) in accordance with the following formula: (½^number of cycles)×10^6 […]

Filaggrin (FLG) = assay: RT-qPCR expression of FLG in NHEK; assay type: cell-based, human; conditions: 24 h, CaCl2 1.5 mM
Experimental: as §1, with “method. […]” for “method.”
as §4, §5
(§8) The incorporation of fluorescence in the amplified DNA is measured continuously during the course of the PCR cycles. These measurements make it possible to obtain intensity curves of the fluorescence depending on the PCR cycles and to thus evaluate a value of relative expression (RE) for each marker. The number of cycles is determined on the basis of “exit” points of the fluorescence curves. […]

[2] = test system: Sulfotransferase family, cytosolic, 2B, member 1 (SULT2B1); assay: RT-qPCR expression of SULT2B1 in NHEK; assay type: cell-based, human; conditions: 24 h, CaCl2 1.5 mM
Experimental: as §1, with “method. […]” for “method.”
as §4, §5, §8

Involucrin (IVL) = assay: RT-qPCR expression of IVL in NHEK; assay type: cell-based, human; conditions: 24 h, CaCl2 1.5 mM
Experimental: as §1, with “method. […]” for “method.”
as §4, §5, §8

Claudin 1 (CLDN1) = assay: RT-qPCR expression of CLDN1 in NHEK; assay type: cell-based, human; conditions: 24 h, CaCl2 1.5 mM
Experimental: as §1, §2, §3, §4, §5, §6, §7

[3] = test system: Acyl-CoA synthetase short-chain family member 2 (ACSS2); assay: RT-qPCR expression of ACSS2 in NHEK; assay type: cell-based, human; conditions: 24 h, CaCl2 1.5 mM
Experimental: as §1, §2, §3, §4, §5, §6, §7

[4] = test system: Glyceraldehyde-3-phosphate dehydrogenase (GAPDH); conditions: NHEK, 24 h, CaCl2 1.5 mM
Experimental: as §1, §2, §3, §4, §5, §6, §7

[5] = test system: Ribosomal protein S28 (RPS28); assay: RT-qPCR expression of RPS28 (housekeeping) in NHEK; assay type: cell-based, human; conditions: 24 h, CaCl2 1.5 mM
Experimental: as §1, §2, §3, §4, §5, §6, §7

[6] = test system: Sphingomyelin phosphodiesterase 1, acid lysosomal (SMPD1); assay: RT-qPCR expression of SMPD1 in NHEK; assay type: cell-based, human; conditions: 24 h, CaCl2 1.5 mM
Experimental: as §1, §2, §3, §4, §5, §6, §7

[7] = test system: LAG1 homolog, ceramide synthase 6 (LASS6); assay: RT-qPCR expression of LASS6 in NHEK; assay type: cell-based, human; conditions: 24 h, CaCl2 1.5 mM
Experimental: as §1, §2, §3, §4, §5, §6, §7

[8] = test system: Fatty acid synthase (FASN); assay: RT-qPCR expression of FASN in NHEK; assay type: cell-based, human; conditions: 24 h, CaCl2 1.5 mM
Experimental: as §1, §2, §3, §4, §5, §6, §7

[9] = test system: Glucosidase, beta; acid (GBA); assay: RT-qPCR expression of GBA in NHEK; assay type: cell-based, human; conditions: 24 h, CaCl2 1.5 mM
Experimental: as §1, §2, §3, §4, §5, §6, §7

Aquaporin 3 (AQP3) = assay: RT-qPCR expression of AQP3 in NHEK; assay type: cell-based, human; conditions: 24 h, CaCl2 1.5 mM
Experimental: as §1, §2, §3, §4, §5, §6, §7

[10] = test system: Arachidonate 12-lipoxygenase (ALOX12); assay: RT-qPCR expression of ALOX12 in NHEK; assay type: cell-based, human; conditions: 24 h, CaCl2 1.5 mM
Experimental: as §1, with “method. […]” for “method.”
as §4, §5, §8

[11] = test system: UDP-glucose ceramide glucosyltransferase (UGCG); assay: RT-qPCR expression of UGCG in NHEK; assay type: cell-based, human; conditions: 24 h, CaCl2 1.5 mM
Experimental: as §1, §2, §3, §4, §5, §6, §7

[12] = test system: Serine palmitoyltransferase, long chain base subunit 1 (SPTLC1); assay: RT-qPCR expression of SPTLC1 in NHEK; assay type: cell-based, human; conditions: 24 h, CaCl2 1.5 mM
Experimental: as §1, §2, §3, §4, §5, §6, §7

[13] = test system: Transglutaminase 1 (TGM1); assay: RT-qPCR expression of TGM1 in NHEK; assay type: cell-based, human; conditions: 24 h, CaCl2 1.5 mM
Experimental: as §1, with “method. […]” for “method.”
as §4, §5, §8

## [Ca+2].[Cl-].[Cl-] [CaCl2, calcium chloride]
[1]
  HAS3 expression, % Control (GAPDH): 108 % Control
  HAS3 expression, % Control (RPS28): 112 % Control
  HAS3 expression, % Control (mean HK): 108 % Control
Filaggrin (FLG)
  FLG expression, % Control (GAPDH): 151 % Control
  FLG expression, % Control (RPS28): 157 % Control
[2]
  SULT2B1 expression, % Control (GAPDH): 244 % Control
  SULT2B1 expression, % Control (RPS28): 254 % Control
Involucrin (IVL)
  IVL expression, % Control (GAPDH): 175 % Control
  IVL expression, % Control (RPS28): 183 % Control
Claudin 1 (CLDN1)
  CLDN1 expression, % Control (GAPDH): 145 % Control
  CLDN1 expression, % Control (RPS28): 152 % Control
  CLDN1 expression, % Control (mean HK): 147 % Control
[3]
  ACSS2 expression, % Control (GAPDH): 127 % Control
  ACSS2 expression, % Control (RPS28): 132 % Control
  ACSS2 expression, % Control (mean HK): 128 % Control
[4]
  GAPDH expression, % Control (GAPDH): 100 % Control
  GAPDH expression, % Control (RPS28): 104 % Control
  GAPDH expression, % Control (mean HK): 101 % Control
[5]
  RPS28 expression, % Control (GAPDH): 96 % Control
  RPS28 expression, % Control (RPS28): 100 % Control
  RPS28 expression, % Control (mean HK): 97 % Control
[6]
  SMPD1 expression, % Control (GAPDH): 108 % Control
  SMPD1 expression, % Control (RPS28): 113 % Control
  SMPD1 expression, % Control (mean HK): 109 % Control
[7]
  LASS6 expression, % Control (GAPDH): 103 % Control
  LASS6 expression, % Control (RPS28): 107 % Control
  LASS6 expression, % Control (mean HK): 104 % Control
[8]
  FASN expression, % Control (GAPDH): 105 % Control
  FASN expression, % Control (RPS28): 109 % Control
  FASN expression, % Control (mean HK): 106 % Control
[9]
  GBA expression, % Control (GAPDH): 123 % Control
  GBA expression, % Control (RPS28): 128 % Control
  GBA expression, % Control (mean HK): 124 % Control
Aquaporin 3 (AQP3)
  AQP3 expression, % Control (GAPDH): 110 % Control
  AQP3 expression, % Control (RPS28): 115 % Control
  AQP3 expression, % Control (mean HK): 111 % Control
[10]
  ALOX12 expression, % Control (GAPDH): 151 % Control
  ALOX12 expression, % Control (RPS28): 158 % Control
[11]
  UGCG expression, % Control (GAPDH): 118 % Control
  UGCG expression, % Control (RPS28): 123 % Control
  UGCG expression, % Control (mean HK): 119 % Control
[12]
  SPTLC1 expression, % Control (GAPDH): 95 % Control
  SPTLC1 expression, % Control (RPS28): 99 % Control
  SPTLC1 expression, % Control (mean HK): 96 % Control
[13]
  TGM1 expression, % Control (GAPDH): 274 % Control
  TGM1 expression, % Control (RPS28): 285 % Control
